According to US20250163052A1, “cGAS INHIBITORS AND USES THEREOF” (Cornell University, priority 2022, published 2025):
Read-outs that look alike come from different tables or passages of the source. Values belong to the compound of their own block, whether it stands above or below them.

How the values were obtained:
NFkB-SEAP = test: THP1-Dual cells transfected with DNA, nfkb expression (Quantiblue); assay type: cell-based; conditions: Homo sapiens; for inhibition at 10 µM: THP-1, 10 μM; for inhibition at 30 µM: THP-1, 30 μM
Procedure, shortened: (§1)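 Readouts after overnight incubation: Quantiluc luminescence for Ifnb, Quantiblue for nfkb (both in supernatant) and CellTiter-Glo for viability. Before the DNA stimulus (2 ug/ml, lipofectamine transfection), THP1-Dual cells received compound at several dilutions for 4 h.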

hERG = hERG (Homo sapiens, UniProt Q12809); test: Safety panel screening, hERG automated patch clamp; assay type: cell-based; conditions: read-out: Mean percentage inhibition (%) at 10 μM, hERG
m-cGAS = m-cGAS (Mus musculus, UniProt Q8C6L5); test: Cell-free mouse cGAS enzyme inhibition assay (ATP depletion, Kinase-Glo Max); assay type: biochemical; conditions: 1 h; for inhibition at 1 µM: read-out: m-cGAS, conc. 1 μM; for inhibition at 10 µM: read-out: m-cGAS, conc. 10 μM
THP1 cells = test: THP1-Dual cells, cell viability (CellTiter-Glo); assay type: cell-based
Procedure, shortened: as §1

[1] = Protein binding in mouse brain homogenates; assay type: in vitro ADME; conditions: for recovery at 6 h / fraction unbound at 6 hr: brain homogenate; for fraction unbound at 6 hr: read-out: % BoundBrain (converted)
IFNB = test: THP1-Dual cells transfected with DNA, Ifnb expression (Quantiluc); assay type: cell-based; conditions: Homo sapiens; for inhibition at 10 µM: THP-1, 10 μM; for inhibition at 30 µM: THP-1, 30 μM
Procedure, shortened: as §1

h-cGAS = h-cGAS (Homo sapiens, UniProt Q8N884); test: Cell-free human cGAS enzyme inhibition assay (ATP depletion, Kinase-Glo Max); assay type: biochemical; conditions: 3 h; for inhibition at 10 µM: read-out: h-cGAS, conc. 10 μM
PDE4D2 = PDE4D2 (Homo sapiens, UniProt Q08499); test: Safety panel screening, PDE4D2 IMAP; assay type: biochemical; conditions: read-out: Mean percentage inhibition (%) at 10 μM, PDE4D2
D1 = D1 (Homo sapiens, UniProt P21728); test: Safety panel screening, D1 cAMP assay; assay type: cell-based
5HT2B = 5HT2B (Homo sapiens, UniProt P41595); test: Safety panel screening, 5HT2B Ca2+ mobilization; assay type: cell-based
[2] = Pharmacokinetic study, plasma and brain PK parameters after I.P. dosing; assay type: in vivo, mouse; conditions: 25 mg/Kg I.P.; for Kp: brain/plasma, 25 mg/kg
Method: To test pharmacokinetics, TDI-6570 ([…] solution in water containing 0.2% Tween 80) was administered to 8-weeks old CD-1 male mice (n=3 for each time point) intraperitoneally (IP) and both plasma (EDTA-K2) and brain tissues were collected at various time points (0.5, 2, 4, 8 and 24 hours post drug administration). Transcardial perfusion were performed with saline prior to brain collection. Bioanalysis of brain tissue and plasma extracts were performed by LC-MS/MS.

SET = SET (Homo sapiens, UniProt P31645); test: Safety panel screening, serotonin transporter neurotransmitter uptake; assay type: cell-based; conditions: read-out: Mean percentage inhibition (%) at 10 μM, SET
[3] = Metabolic stability in mouse liver microsomes
[4] = Metabolic stability in human liver microsomes

h-cGAS, sequence (Q8N884 whole entry): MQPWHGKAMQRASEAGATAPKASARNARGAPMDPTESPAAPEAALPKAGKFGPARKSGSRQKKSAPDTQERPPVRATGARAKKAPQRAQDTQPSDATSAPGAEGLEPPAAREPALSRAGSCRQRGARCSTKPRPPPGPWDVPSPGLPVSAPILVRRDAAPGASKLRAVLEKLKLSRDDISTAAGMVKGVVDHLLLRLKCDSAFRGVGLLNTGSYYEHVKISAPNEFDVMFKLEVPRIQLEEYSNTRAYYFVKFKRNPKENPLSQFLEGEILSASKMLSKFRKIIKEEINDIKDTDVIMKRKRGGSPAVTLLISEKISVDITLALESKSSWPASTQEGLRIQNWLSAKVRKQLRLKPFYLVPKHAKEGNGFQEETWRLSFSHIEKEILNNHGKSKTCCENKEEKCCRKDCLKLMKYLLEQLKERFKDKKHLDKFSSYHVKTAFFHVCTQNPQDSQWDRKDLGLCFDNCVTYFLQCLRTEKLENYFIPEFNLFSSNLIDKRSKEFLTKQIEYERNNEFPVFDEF
m-cGAS, sequence (Q8C6L5 whole entry): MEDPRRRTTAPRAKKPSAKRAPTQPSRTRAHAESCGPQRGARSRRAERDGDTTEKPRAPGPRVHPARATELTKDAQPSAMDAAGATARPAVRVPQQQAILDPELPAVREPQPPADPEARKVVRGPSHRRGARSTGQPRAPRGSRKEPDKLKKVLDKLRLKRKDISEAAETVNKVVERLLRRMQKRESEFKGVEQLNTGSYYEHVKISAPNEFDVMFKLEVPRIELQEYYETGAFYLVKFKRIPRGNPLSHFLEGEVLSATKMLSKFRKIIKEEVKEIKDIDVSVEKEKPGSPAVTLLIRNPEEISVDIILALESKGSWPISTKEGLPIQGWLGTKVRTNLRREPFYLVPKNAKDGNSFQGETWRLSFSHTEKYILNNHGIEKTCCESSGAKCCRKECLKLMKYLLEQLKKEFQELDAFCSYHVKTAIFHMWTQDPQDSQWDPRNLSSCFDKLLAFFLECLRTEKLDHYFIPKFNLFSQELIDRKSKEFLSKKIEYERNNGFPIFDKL
5HT2B, sequence (P41595 whole entry, species assumed): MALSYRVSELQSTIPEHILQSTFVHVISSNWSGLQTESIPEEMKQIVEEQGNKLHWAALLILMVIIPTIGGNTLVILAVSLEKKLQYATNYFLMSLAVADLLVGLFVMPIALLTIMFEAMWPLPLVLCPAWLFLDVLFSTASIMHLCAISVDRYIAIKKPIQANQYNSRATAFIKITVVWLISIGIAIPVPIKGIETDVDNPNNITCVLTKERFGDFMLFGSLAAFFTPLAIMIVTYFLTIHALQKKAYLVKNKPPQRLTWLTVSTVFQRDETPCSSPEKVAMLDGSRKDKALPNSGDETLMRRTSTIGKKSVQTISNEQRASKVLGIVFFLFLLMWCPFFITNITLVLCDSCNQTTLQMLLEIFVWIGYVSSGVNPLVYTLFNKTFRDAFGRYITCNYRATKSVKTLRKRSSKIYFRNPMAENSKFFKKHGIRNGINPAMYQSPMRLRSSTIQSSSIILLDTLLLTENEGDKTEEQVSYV
D1, sequence (P21728 whole entry): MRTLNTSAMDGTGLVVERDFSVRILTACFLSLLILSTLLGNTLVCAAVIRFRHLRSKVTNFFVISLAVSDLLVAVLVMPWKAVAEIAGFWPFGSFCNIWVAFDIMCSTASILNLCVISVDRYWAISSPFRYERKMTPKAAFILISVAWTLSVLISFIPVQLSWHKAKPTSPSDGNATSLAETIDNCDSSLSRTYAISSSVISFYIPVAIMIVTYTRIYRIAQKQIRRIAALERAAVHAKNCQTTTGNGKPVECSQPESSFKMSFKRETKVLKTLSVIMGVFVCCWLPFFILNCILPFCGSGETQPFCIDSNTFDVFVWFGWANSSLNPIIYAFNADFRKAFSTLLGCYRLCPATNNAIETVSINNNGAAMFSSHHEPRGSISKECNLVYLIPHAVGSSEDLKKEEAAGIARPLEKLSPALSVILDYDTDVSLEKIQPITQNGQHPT
hERG, sequence (Q12809 whole entry): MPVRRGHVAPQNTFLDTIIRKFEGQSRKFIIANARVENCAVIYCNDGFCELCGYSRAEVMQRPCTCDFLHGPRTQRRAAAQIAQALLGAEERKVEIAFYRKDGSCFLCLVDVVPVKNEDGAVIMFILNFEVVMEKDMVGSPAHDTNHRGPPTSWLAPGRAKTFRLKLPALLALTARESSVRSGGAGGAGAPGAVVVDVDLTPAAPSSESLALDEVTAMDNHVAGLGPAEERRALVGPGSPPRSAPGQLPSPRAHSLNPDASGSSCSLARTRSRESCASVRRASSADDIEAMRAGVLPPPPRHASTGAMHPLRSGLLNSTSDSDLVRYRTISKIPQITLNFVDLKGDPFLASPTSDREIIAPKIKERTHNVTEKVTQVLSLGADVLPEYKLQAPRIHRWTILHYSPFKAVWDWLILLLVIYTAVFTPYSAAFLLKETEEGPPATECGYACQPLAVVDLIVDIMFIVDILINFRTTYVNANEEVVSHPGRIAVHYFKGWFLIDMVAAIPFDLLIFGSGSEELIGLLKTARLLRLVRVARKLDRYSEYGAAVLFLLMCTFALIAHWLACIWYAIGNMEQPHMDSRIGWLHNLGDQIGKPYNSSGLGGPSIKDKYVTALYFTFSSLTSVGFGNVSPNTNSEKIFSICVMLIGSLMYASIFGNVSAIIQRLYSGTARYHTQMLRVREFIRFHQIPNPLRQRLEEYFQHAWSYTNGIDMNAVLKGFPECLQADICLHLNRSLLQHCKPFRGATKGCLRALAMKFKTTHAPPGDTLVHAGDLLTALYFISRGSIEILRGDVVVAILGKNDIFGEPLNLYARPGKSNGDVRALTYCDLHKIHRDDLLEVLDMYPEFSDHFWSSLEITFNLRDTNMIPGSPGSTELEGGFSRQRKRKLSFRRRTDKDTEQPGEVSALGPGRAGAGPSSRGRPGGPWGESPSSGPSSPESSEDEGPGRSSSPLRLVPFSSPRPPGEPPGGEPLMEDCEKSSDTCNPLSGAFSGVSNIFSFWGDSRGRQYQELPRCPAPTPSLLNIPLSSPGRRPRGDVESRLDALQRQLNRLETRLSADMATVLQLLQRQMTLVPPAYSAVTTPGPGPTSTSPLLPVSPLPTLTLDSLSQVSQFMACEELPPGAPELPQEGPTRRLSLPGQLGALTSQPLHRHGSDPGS
PDE4D2, sequence (Q08499 303-809): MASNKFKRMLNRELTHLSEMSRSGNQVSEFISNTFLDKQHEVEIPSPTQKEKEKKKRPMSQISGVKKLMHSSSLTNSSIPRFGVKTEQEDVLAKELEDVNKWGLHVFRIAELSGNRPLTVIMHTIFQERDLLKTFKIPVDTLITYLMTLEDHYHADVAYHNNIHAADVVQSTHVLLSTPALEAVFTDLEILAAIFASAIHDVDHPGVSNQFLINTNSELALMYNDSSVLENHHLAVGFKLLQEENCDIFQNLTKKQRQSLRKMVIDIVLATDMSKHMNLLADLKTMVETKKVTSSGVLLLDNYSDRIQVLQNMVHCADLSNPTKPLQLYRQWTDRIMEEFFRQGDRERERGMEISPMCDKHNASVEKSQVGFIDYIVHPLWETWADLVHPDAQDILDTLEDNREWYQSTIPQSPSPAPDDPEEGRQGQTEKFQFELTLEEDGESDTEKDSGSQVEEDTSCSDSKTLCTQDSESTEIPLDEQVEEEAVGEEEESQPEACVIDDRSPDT
SET, sequence (P31645 whole entry): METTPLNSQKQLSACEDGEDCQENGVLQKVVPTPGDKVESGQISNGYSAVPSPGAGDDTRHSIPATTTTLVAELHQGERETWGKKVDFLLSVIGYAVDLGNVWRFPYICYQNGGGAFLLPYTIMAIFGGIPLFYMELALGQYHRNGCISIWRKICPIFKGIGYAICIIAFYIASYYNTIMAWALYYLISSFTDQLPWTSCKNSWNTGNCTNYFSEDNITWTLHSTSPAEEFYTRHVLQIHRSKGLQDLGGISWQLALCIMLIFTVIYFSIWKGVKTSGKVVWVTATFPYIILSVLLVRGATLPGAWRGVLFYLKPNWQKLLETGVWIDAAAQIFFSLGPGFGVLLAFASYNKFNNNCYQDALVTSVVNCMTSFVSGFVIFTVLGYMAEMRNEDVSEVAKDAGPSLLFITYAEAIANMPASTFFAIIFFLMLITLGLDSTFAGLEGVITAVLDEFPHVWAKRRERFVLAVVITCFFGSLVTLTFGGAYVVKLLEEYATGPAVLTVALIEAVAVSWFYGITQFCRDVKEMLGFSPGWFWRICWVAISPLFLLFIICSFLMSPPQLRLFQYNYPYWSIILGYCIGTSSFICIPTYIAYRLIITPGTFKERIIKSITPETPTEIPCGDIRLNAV

inhibition at 1 µM (m-cGAS): 25 to 49% | inhibition at 10 µM (m-cGAS): 50 to 74% | LogK [1]: >4.72 | % Remaining at 6 hr [1]: 108.27% | recovery at 6 h [1]: < 88.4% | fraction unbound at 6 hr [1]: < 2e-05 | inhibition at 10 µM (h-cGAS): 25 to 49% | AUC_%Extrap_obs (Brain) ([2]; brain): 1.62% | AUClast/D (Brain) ([2]; brain): 1354 mg·h/mL | Cmax (Brain) ([2]; brain): 3721 ng/mL | Kp ([2]; mouse, ip, read-out: AUClast Ratio (brain/plasma)): 0.989 | Kp ([2]; mouse, ip, read-out: Cmax Ratio (brain/plasma)): 0.734 | AUC(0-inf) ([2]; mouse, ip, brain, read-out: AUCInf (Brain)): 34400 ng·h/mL | AUC(0-t) ([2]; mouse, ip, brain, read-out: AUClast (Brain)): 33900 ng·h/mL | MRT inf ([2]; mouse, ip, brain, read-out: MRTInf_obs (Brain)): 6.51 h | half-life ([2]; mouse, ip, brain, read-out: T1/2 (Brain) (converted)): 3.86 h | Tmax ([2]; mouse, ip, brain, read-out: Tmax (Brain)): 4 h | Cmax ([2]; mouse, ip, plasma): 5070 ng/mL | AUC(0-inf) ([2]; mouse, ip, plasma, read-out: AUCInf (plasma)): 34300 ng·h/mL | AUC(0-t) ([2]; mouse, ip, plasma, read-out: AUClast (plasma)): 34200 ng·h/mL | MRT inf ([2]; mouse, ip, plasma, read-out: MRTInf_obs (plasma)): 4.76 h | half-life ([2]; mouse, ip, plasma, read-out: T1/2 (plasma) (converted)): 4.79 h | Tmax ([2]; mouse, ip, plasma, read-out: Tmax (plasma)): 2 h | AUC_%Extrap_obs (plasma) ([2]; plasma): 0.0536% | AUClast/D (plasma) ([2]; plasma): 1370 mg·h/mL
Compound: O=C(CO)N1CCc2c(sc3c(Cl)c(Cl)cc(-c4cn[nH]c4)c23)C1 [Compound 63]
inhibition at 10 µM (NFkB-SEAP): 25 to 49% | inhibition at 30 µM (NFkB-SEAP): 75 to 100% | inhibition at 10 µM (hERG): 49.7% | Cell viability 10 μM (THP1 cells): +++ (+, ++, and +++ mean the compound respectively shows 25-49%; 50-74%; or 75-100% viability to cells) | Cell viability 30 μM (THP1 cells): +++ (+, ++, and +++ mean the compound respectively shows 25-49%; 50-74%; or 75-100% viability to cells) | inhibition at 10 µM (IFNB): 50 to 74% | inhibition at 30 µM (IFNB): 75 to 100% | inhibition at 10 µM (PDE4D2): 73.2% | Agonist Mode Mean percentage activation (%) at 10 μM, D1 (D1; agonist mode): 6.19% | inhibition at 10 µM (D1; antagonist mode, read-out: Antagonist Mode Mean percentage inhibition (%) at 10 μM, D1): 3.08% | Agonist Mode Mean percentage activation (%) at 10 μM, 5HT2B (5HT2B; agonist mode): 22.36% | inhibition at 10 µM (5HT2B; antagonist mode, read-out: Antagonist Mode Mean percentage inhibition (%) at 10 μM, 5HT2B): 49.4% | inhibition at 10 µM (SET): 15.2%

Remaining (NCF = 60 min) ([3]; mouse liver microsomes, 60 min, no co-factor (no NADPH)): 97.8% | Remaining (T = 60 min) ([3]; mouse liver microsomes, 60 min with NADPH): 84.8% | CLint scaled ([3]; mouse, liver microsomes): < 38 mL/min/kg | half-life ([3]; mouse, liver microsomes): > 2.42 h | microsomal CLint ([3]; mouse, liver microsomes): < 9.6 µL/min/mg | inhibition at 1 µM (m-cGAS): 25 to 49% | inhibition at 10 µM (m-cGAS): 75 to 100% | LogK [1]: 1.12 | % Remaining at 6 hr [1]: 98.24% | recovery at 6 h [1]: 92.8% | fraction unbound at 6 hr [1]: 0.0706 | Remaining (NCF = 60 min) ([4]; human liver microsomes, 60 min, no co-factor (no NADPH)): 89.2% | Remaining (T = 60 min) ([4]; human liver microsomes, 60 min with NADPH): 93.6% | CLint scaled ([4]; human, liver microsomes): < 8.6 mL/min/kg | half-life ([4]; human, liver microsomes): > 2.42 h | microsomal CLint ([4]; human, liver microsomes): < 9.6 µL/min/mg | inhibition at 1 µM (h-cGAS; read-out: h-cGAS, conc. 1 μM): 0 to 24% | inhibition at 10 µM (h-cGAS): 25 to 49%
Compound: Cn1cc(-c2cc(Cl)c(Cl)c3sc4c(c23)CCN(C(=O)CN)C4)cn1 [Compound 74]
inhibition at 10 µM (NFkB-SEAP): 25 to 49% | inhibition at 30 µM (NFkB-SEAP): 50 to 74% | Cell viability 10 μM (THP1 cells): +++ (+, ++, and +++ mean the compound respectively shows 25-49%; 50-74%; or 75-100% viability to cells) | Cell viability 30 μM (THP1 cells): − (Cell viability <24%, in THP1 cells is expressed as “−”) | inhibition at 10 µM (IFNB): 75 to 100% | inhibition at 30 µM (IFNB): 75 to 100%

inhibition at 10 µM (m-cGAS): 0 to 24% | LogK [1]: 0.64 | % Remaining at 6 hr [1]: 99.35% | recovery at 6 h [1]: 90.1% | fraction unbound at 6 hr [1]: 0.19 | inhibition at 10 µM (h-cGAS): 0 to 24%
Compound: Cn1cc(-c2cc(Cl)c(Cl)c3nc4c(n23)CN(C(=O)CO)CC4)cn1 [Compound 99]

LogK [1]: 1.72 | % Remaining at 6 hr [1]: 103.38% | recovery at 6 h [1]: 99.3% | fraction unbound at 6 hr [1]: 0.0188
Compound: CCCc1nc2c(C)cc(-c3nc4ccccc4n3C)cc2n1Cc1ccc(-c2ccccc2C(=O)O)cc1 [Telmisartan, reference compound]
